Biological target: T1, Human Dectin-1a (Homo sapiens, UniProt Q9BXN2)
T1 construct: expressed in transfected cells; host or cells: HEK293
T1 sequence (Q9BXN2 1-247): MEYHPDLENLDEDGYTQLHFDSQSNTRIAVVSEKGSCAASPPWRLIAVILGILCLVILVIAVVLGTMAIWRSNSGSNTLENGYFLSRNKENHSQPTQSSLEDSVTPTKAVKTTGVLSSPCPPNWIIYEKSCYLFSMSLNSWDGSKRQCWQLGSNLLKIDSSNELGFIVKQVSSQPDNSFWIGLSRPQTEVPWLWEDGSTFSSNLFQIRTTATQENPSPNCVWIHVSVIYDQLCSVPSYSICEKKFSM
Experiment: Human CLR antagonist screening, NF-κB SEAP reporter in HEK293 cells
Format: cell-based
Conditions: antagonist mode, Ami 1 μM
Method: Toll-Like Receptor (TLR), NOD-Like Receptor (NLR) and C-Type Lectin Receptor (CLR) stimulation were tested by assessing NF-κB activation in HEK293 cells expressing a given TLR, NLR or CLR. The activity of the test articles was tested at one concentration and compared to control ligands. These steps were performed in triplicate. hDectin-1a and hDectin-1b: WGP Soluble (0-glucan from S. cerevisiae) at 10 ng/mL Antagonist: 5 ng/mL. Curdlan at 100 μg/mL. Antagonist: 100 μg/mL. Zymosan Depleted (hot alkali treated S. cerevisiae) at 5 μg/mL Antagonist: 3 μg/mL. In a 96-well plate (200 μL total volume) containing the appropriate cells (50,000-75,000 cells/well), 20 μL of the test article or the positive control ligand was added to the wells. For the antagonist assay, the test article was incubated with the cells, at 37° C. with 5% CO2, for 30 minutes prior to the addition of the positive control ligand to the wells. The media added to the wells was designed for the detection of NF-κB induced SEAP expression. After a 16-24 hr incubation the optical density (OD) was read at 650 nm on a Molecular Devices SpectraMax 340PC absorbance detector. Fold induction (ratio of average induced value to average non-induced value) was determined for each TLR, NOD1, NOD2, Dectin-1a, Dectin-1b.

SMILES: CN(C)CCC=C1c2ccccc2CCc2ccccc21 [Amitriptyline]
- Fold Induction (+Curdlan 100 μg/mL, No Sample 5, Control− 1): slight inhibitory effect
- Fold Induction (+Curdlan 100 μg/mL, No Sample 5, Control− 1, listed as Ami): 4
- Fold Induction (+WGP Soluble 5 ng/mL, No Sample 8, Control− 1): 8
- Fold Induction (+Zymosan Depleted 3 μg/mL, No Sample 6, Control− 1): slight inhibitory effect
- Fold Induction (+Zymosan Depleted 3 μg/mL, No Sample 6, Control− 1, listed as Ami): 4

Source: patent publication US11400059B2, “Treatment of pain and/or pain related symptoms associated with dysmenorrhea” (ALYRA BIOTECH PTY LTD, priority 2017, dated 2022)
